Measured values as given in patent publication US20040253256A1, “Biological compositions and methods for treatment of prostate cancer” (priority 2003, published 2004).
Where two headings read alike, the source gives them in different places.

Experiments:
human prostate cancer [1] = settings: for Number of live animals remaining in the groups after 30 days of treatment: 30 mice per group, 2CTX 45 mg/kg/day s.c.
Text: (§1) The animals used to generate the prostate cancer cells for the experiments were male nude mouse (obtainable from the Chinese Academy of Military Medical Sciences, Beijing, China) with an average weight of about 15 to 18 gram. Fresh prostate tumor cells (obtainable from the Cancer Institute, Chinese Academy of Medical Sciences, Beijing, China) were divided into sections of size 1-2 mm^3 and immediately stored in […] suspension after removal from the human patient.
The mouse were starved for 24 hours before the surgery. The animals were generally anaesthetized. The barbiturates was first diluted in saline and then injected at 0.3 to 0.4 ml per animal, or 30 mg per kg body weight, into the abdomen of the mice. Under sterile conditions, a 1 cm long opening in the body cavity was cut along the right rib of the mice for engraftment of the tumor. About 10^6 units of tumor cells (about 2 mg tumor pieces per ml culture medium) were transplanted. Afterwards, the opening was sutured and the mice were put back into the cage. The animals were allowed to grow for three to five weeks or when the tumor grows to about 1 to 2 cm^3 in size. […] The tumor was removed from a donor rat and minced aseptically in 4 ml of Hank's solution to form a cell suspension. About 10^6 units of tumor cells (about 0.2 ml cell suspension) were transplanted into a healthy batch of nude mice.
The survival time of mice after tumor injection and treatment was studied.
The biological composition comprising 10^8 cells per ml of activated and conditioned yeast cells of the strain Saccharomyces carlsbergensis Hansen strain AS2.440 was prepared by the methods described in Section 5.1 and subsections therein
The animals were prepared in a similar manner as described in Section 6.1.
The mice injected with tumor cells were kept for 2 weeks and then were divided into 4 experimental groups of ten mice per group and one control group. The four experimental groups were triplicated (i.e., using a total of 120 mice in the experimental groups). In group 2AY, the mice received 0.5 ml of the biological composition once per day. In group 2NY, the mice received 0.5 ml of the untreated yeast cells once per day. In group 2CTX, the mice were injected subcutaneously with 45 mg of cyclophosphamide (CTX) per kg body weight per day. In group 2CK1, the mice received 0.5 ml of physiological saline once per day.
The mice received the biological compositions, untreated yeast cells, CTX or saline on the same day as the tumor cells were transplanted. The mice in group 2CK2 also started receiving saline on the same day as the other four groups. The biological compositions, untreated yeast cells and saline were administered orally by a feeding tube and the CTX by subcutaneous injection for 30 consecutive days. The mice were observed over 6 months from the day of tumor inoculation and survival was recorded. The weight of the mice and the weight of the tumor were determined by standard techniques.

human prostate cancer [2] = assay: Example 6: tumor growth in nude mouse model of human prostate cancer (thiotepa comparator); type: in vivo; settings: 31st day from tumor inoculation; 30 consecutive days; AY/NY 0.3 ml oral once per day, TSPA 1.5 mg/kg/day i.v.
Protocol: The human prostate cancer sample was carefully selected before, during, and after surgery in order to ensure transplant occurred at the equivalent position in the mouse. The prostate cancer sample was obtained from patients who have not received any radiation, chemotherapy, or immune enhancement treatment.
(§2) The animals were generally anaesthetized.
In group TSPA, the mice were injected intravenously with 1.5 mg of thiotepa (TSPA) per kg body weight per day.

human prostate cancer [3] = assay: Example 7: survival time in nude mouse model of human prostate cancer (thiotepa comparator); type: in vivo; settings: for Number of live animals remaining in the groups after 30 days of treatment: 30 mice per group
Protocol: as §2
In group 2TSPA, the mice were injected intravenously with 2.2 mg of thiotepa (TSPA) per kg body weight per day.

human prostate cancer [4] = settings: 31st day from tumor inoculation; 30 consecutive days; AY/NY 0.3 ml oral once per day, CTX 30 mg/kg/day s.c.
Text: as §1
The mouse were starved for 24 hours before the surgery. The animals were generally anaesthetized. The barbiturates was first diluted in saline and then injected at 0.3 to 0.4 ml per animal, or 30 mg per kg body weight, into the abdomen of the mice. Under sterile conditions, a 1 cm long opening in the body cavity was cut along the right rib of the mice for engraftment of the tumor. About 10^6 units of tumor cells (about 2 mg tumor pieces per ml culture medium) were transplanted. Afterwards, the opening was sutured and the mice were put back into the cage. The animals were allowed to grow for three to five weeks or when the tumor grows to about 1 to 2 cm^3 in size. […]
The mice received the biological compositions, untreated yeast cells, CTX or saline on the same day as the tumor cells were transplanted. […] The weight of the mice and the weight of the tumor were determined by standard techniques.

[5] = mice that survived the 6 months observation, 2AY/2NY 0.5 ml oral daily, CTX 45 mg/kg/day s.c., 30 days
[6] = mice that survived the 6 months observation, 2AY/2NY 0.5 ml oral daily, 2TSPA 2.2 mg/kg/day i.v., 30 days

S=P(N1CC1)(N1CC1)N1CC1 [TSPA, thiotepa]
mean weight of mice and standard deviation (human prostate cancer [1]; [5]): all animals dead
mean weight of tumor nodules and standard deviation (human prostate cancer [1]; [5]): all animals dead
mean weight of mice and standard deviation (human prostate cancer [2]): 16.2 ± 1.7 g
mean weight of tumor nodules and standard deviation (human prostate cancer [2]): 2.4 ± 1.2 mg
Number of live animals remaining in the groups after 30 days of treatment (human prostate cancer [3]; 0 month after cessation of treatment, 2AY/2NY 0.5 ml oral daily, 2TSPA 2.2 mg/kg/day i.v.): 30
Number of live animals remaining in the groups after 30 days of treatment (human prostate cancer [3]; 1 month after cessation of treatment, 2AY/2NY 0.5 ml oral daily, 2TSPA 2.2 mg/kg/day i.v.): 30
survival after six months from injection of tumor cells (human prostate cancer [3]; 2NY 0.5 ml per day, 2TSPA 2.2 mg/kg per day, 30 days): all died
Number of live animals remaining in the groups after 30 days of treatment (human prostate cancer [3]; 2 months after cessation of treatment, 2AY/2NY 0.5 ml oral daily, 2TSPA 2.2 mg/kg/day i.v.): 30
Number of live animals remaining in the groups after 30 days of treatment (human prostate cancer [3]; 3 months after cessation of treatment, 2AY/2NY 0.5 ml oral daily, 2TSPA 2.2 mg/kg/day i.v.): 27
Number of live animals remaining in the groups after 30 days of treatment (human prostate cancer [3]; 4 months after cessation of treatment, 2AY/2NY 0.5 ml oral daily, 2TSPA 2.2 mg/kg/day i.v.): 17
Number of live animals remaining in the groups after 30 days of treatment (human prostate cancer [3]; 5 months after cessation of treatment, 2AY/2NY 0.5 ml oral daily, 2TSPA 2.2 mg/kg/day i.v.): 5
Number of live animals remaining in the groups after 30 days of treatment (human prostate cancer [3]; 6 months after cessation of treatment, 2AY/2NY 0.5 ml oral daily, 2TSPA 2.2 mg/kg/day i.v.): 0
mean weight of mice and standard deviation (human prostate cancer [3]; [6]): all animals dead
mean weight of tumor nodules and standard deviation (human prostate cancer [3]; [6]): all animals dead

O=P1(N(CCCl)CCCl)NCCCO1 (stereo not drawn) [CTX, cyclophosphamide]
Number of live animals remaining in the groups after 30 days of treatment (human prostate cancer [1]; 0 month after cessation of treatment, 2AY/2NY 0.5 ml oral daily): 30
Number of live animals remaining in the groups after 30 days of treatment (human prostate cancer [1]; 1 month after cessation of treatment, 2AY/2NY 0.5 ml oral daily): 30
survival after six months from injection of tumor cells (human prostate cancer [1]; 2NY 0.5 ml per day, 2CTX 45 mg/kg per day, 30 days): all died
Number of live animals remaining in the groups after 30 days of treatment (human prostate cancer [1]; 2 months after cessation of treatment, 2AY/2NY 0.5 ml oral daily): 30
Number of live animals remaining in the groups after 30 days of treatment (human prostate cancer [1]; 3 months after cessation of treatment, 2AY/2NY 0.5 ml oral daily): 27
Number of live animals remaining in the groups after 30 days of treatment (human prostate cancer [1]; 4 months after cessation of treatment, 2AY/2NY 0.5 ml oral daily): 22
Number of live animals remaining in the groups after 30 days of treatment (human prostate cancer [1]; 5 months after cessation of treatment, 2AY/2NY 0.5 ml oral daily): 17
Number of live animals remaining in the groups after 30 days of treatment (human prostate cancer [1]; 6 months after cessation of treatment, 2AY/2NY 0.5 ml oral daily): 0
mean weight of mice and standard deviation (human prostate cancer [4]): 16.7 ± 1.7 g
mean weight of tumor nodules and standard deviation (human prostate cancer [4]): 3.3 ± 1.7 g
